PubChem BioAssay AID1963863 (Molecular Pharmacology Branch, DTP, NCI, 2024)

Tested on: 931267-113-T-J1-PDC KRAS spheroid with HUVEC/MSC, viability
Assay: Anticancer human tumor 931267-113-T-J1-PDC patient-derived colon adenocarcinoma cell line growth inhibition [KRAS2]
Conditions: for IC50: curve of first compound; for viability, T/C: stronger effect = lower value; active = viability on the fitted dose curve at most 10% of control; inactive = the rest
Summary of the method: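 KRAS-mutant tumor cells were grown as spheroids with HUVEC endothelial cells and human MSCs as stroma. Targeted agents were tested alone and with KRAS pathway inhibitors. Doses started at or near clinical Cmax, or 10 microM, descending half-log.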

[1] = second compound 0.1 µM, first compound 0.000316 µM
[2] = second compound 0.1 µM, first compound 0.001 µM
[3] = second compound 0.1 µM, first compound 0.00316 µM
[4] = second compound 0.1 µM, first compound 0.01 µM
[5] = second compound 0.1 µM, first compound 0.0316 µM
[6] = second compound 0.316 µM, first compound 0.000316 µM
[7] = second compound 0.316 µM, first compound 0.001 µM
[8] = second compound 0.316 µM, first compound 0.00316 µM
[9] = second compound 0.316 µM, first compound 0.01 µM
[10] = second compound 0.316 µM, first compound 0.0316 µM
[11] = second compound 1 µM, first compound 0.000316 µM
[12] = second compound 1 µM, first compound 0.001 µM
[13] = second compound 1 µM, first compound 0.00316 µM
[14] = second compound 1 µM, first compound 0.01 µM
[15] = second compound 1 µM, first compound 0.0316 µM
[16] = second compound 3.16 µM, first compound 0.000316 µM
[17] = second compound 3.16 µM, first compound 0.001 µM
[18] = second compound 3.16 µM, first compound 0.00316 µM
[19] = second compound 3.16 µM, first compound 0.01 µM
[20] = second compound 3.16 µM, first compound 0.0316 µM
[21] = second compound 10 µM, first compound 0.000316 µM
[22] = second compound 10 µM, first compound 0.001 µM
[23] = second compound 10 µM, first compound 0.00316 µM
[24] = second compound 10 µM, first compound 0.01 µM
[25] = second compound 10 µM, first compound 0.0316 µM
[26] = second compound 0.1 µM, first compound 0.1 µM
[27] = second compound 0.316 µM, first compound 0.1 µM
[28] = second compound 1 µM, first compound 0.1 µM
[29] = second compound 3.16 µM, first compound 0.1 µM
[30] = second compound 10 µM, first compound 0.1 µM
[31] = second compound 0.1 µM, first compound 0.316 µM
[32] = second compound 0.1 µM, first compound 1 µM
[33] = second compound 0.1 µM, first compound 3.16 µM
[34] = second compound 0.1 µM, first compound 10 µM
[35] = second compound 0.316 µM, first compound 0.316 µM
[36] = second compound 0.316 µM, first compound 1 µM
[37] = second compound 0.316 µM, first compound 3.16 µM
[38] = second compound 0.316 µM, first compound 10 µM
[39] = second compound 1 µM, first compound 0.316 µM
[40] = second compound 1 µM, first compound 1 µM
[41] = second compound 1 µM, first compound 3.16 µM
[42] = second compound 1 µM, first compound 10 µM
[43] = second compound 3.16 µM, first compound 0.316 µM
[44] = second compound 3.16 µM, first compound 1 µM
[45] = second compound 3.16 µM, first compound 3.16 µM
[46] = second compound 3.16 µM, first compound 10 µM
[47] = second compound 10 µM, first compound 0.316 µM
[48] = second compound 10 µM, first compound 1 µM
[49] = second compound 10 µM, first compound 3.16 µM
[50] = second compound 10 µM, first compound 10 µM
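Note: compound exposure lasted 7 days before the readout.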
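Throughout, for viability, T/C: 100% = DMSO vehicle control viability.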

CC(=O)Nc1cccc(-n2c(=O)n(C3CC3)c(=O)c3c(Nc4ccc(I)cc4F)n(C)c(=O)c(C)c32)c1 + CC1OCC2(CCN(c3cnc(Sc4ccnc(N)c4Cl)c(N)n3)CC2)C1N
0.274 nM: IC50 (second compound 10 µM)
0.951 nM: IC50 (second compound 3.16 µM)
inactive: viability, T/C (second compound 0.1 µM, first compound 0.0001 µM) 92% | viability, T/C [1] 81.6% | viability, T/C [2] 68.2% | viability, T/C [3] 56.1% | viability, T/C [4] 62.2% | viability, T/C [5] 20.1% | viability, T/C (second compound 0.316 µM, first compound 0.0001 µM) 60.2% | viability, T/C [6] 54.3% | viability, T/C [7] 71.8% | viability, T/C [8] 48.9% | viability, T/C [9] 51.7% | viability, T/C (second compound 1 µM, first compound 0.0001 µM) 67.7% | viability, T/C [11] 69.5% | viability, T/C [12] 53.9% | viability, T/C [13] 50.8% | viability, T/C [14] 37.7% | viability, T/C (second compound 3.16 µM, first compound 0.0001 µM) 59.7% | viability, T/C [16] 61.5% | viability, T/C [17] 46.9% | viability, T/C [18] 38.7% | viability, T/C [19] 26.9% | viability, T/C (second compound 10 µM, first compound 0.0001 µM) 60.8% | viability, T/C [21] 47.9% | viability, T/C [22] 31.8% | viability, T/C [23] 35% | viability, T/C [24] 12.3%
8.08 nM: IC50 (second compound 0.1 µM)
9.27 nM: IC50 (second compound 0.316 µM)
active: viability, T/C [10] 7.58% | viability, T/C [15] 6.56% | viability, T/C [20] 7.86% | viability, T/C [25] 2.06%
3.37 nM: IC50 (second compound 1 µM)

CC(C)n1nc(-c2ccc3oc(N)nc3c2)c2c(N)ncnc21 + CC1OCC2(CCN(c3cnc(Sc4ccnc(N)c4Cl)c(N)n3)CC2)C1N
3.6 nM: IC50 (second compound 3.16 µM)
3.13 nM: IC50 (second compound 0.316 µM)
4.38 nM: IC50 (second compound 0.1 µM)
inactive: viability, T/C [1] 90% | viability, T/C [2] 81.6% | viability, T/C [3] 49.5% | viability, T/C [4] 42.8% | viability, T/C [5] 27.6% | viability, T/C [26] 26.1% | viability, T/C [6] 85.2% | viability, T/C [7] 76.3% | viability, T/C [8] 44.7% | viability, T/C [9] 34.9% | viability, T/C [10] 19.9% | viability, T/C [27] 16.7% | viability, T/C [11] 79.7% | viability, T/C [12] 66.9% | viability, T/C [13] 51.3% | viability, T/C [14] 36.8% | viability, T/C [15] 25.7% | viability, T/C [28] 18.7% | viability, T/C [16] 68.4% | viability, T/C [17] 64.1% | viability, T/C [18] 46.1% | viability, T/C [19] 43.9% | viability, T/C [20] 27% | viability, T/C [29] 15.6% | viability, T/C [21] 66.5% | viability, T/C [22] 77.7% | viability, T/C [23] 62.2% | viability, T/C [24] 45.3% | viability, T/C [25] 19.9% | viability, T/C [30] 22.5%
3.53 nM: IC50 (second compound 1 µM)
7.13 nM: IC50 (second compound 10 µM)

CC1(C)CCC(CN2CCN(c3ccc(C(=O)NS(=O)(=O)c4ccc(NCC5CCOCC5)c([N+](=O)[O-])c4)c(Oc4cnc5[nH]ccc5c4)c3)CC2)=C(c2ccc(Cl)cc2)C1 + CC1OCC2(CCN(c3cnc(Sc4ccnc(N)c4Cl)c(N)n3)CC2)C1N
1640 nM: IC50 (second compound 0.316 µM)
1670 nM: IC50 (second compound 3.16 µM)
1660 nM: IC50 (second compound 10 µM)
1740 nM: IC50 (second compound 1 µM)
active: viability, T/C [34] 8.53% | viability, T/C [38] 3.06% | viability, T/C [42] 1.45% | viability, T/C [46] 0.6% | viability, T/C [49] 5.34% | viability, T/C [50] 0.28%
1710 nM: IC50 (second compound 0.1 µM)
inactive: viability, T/C [5] 104% | viability, T/C [26] 84.1% | viability, T/C [31] 87.8% | viability, T/C [32] 75.7% | viability, T/C [33] 20.9% | viability, T/C [10] 91% | viability, T/C [27] 81.3% | viability, T/C [35] 73.2% | viability, T/C [36] 72.8% | viability, T/C [37] 20.7% | viability, T/C [15] 84.9% | viability, T/C [28] 75.9% | viability, T/C [39] 67.5% | viability, T/C [40] 81.3% | viability, T/C [41] 20.5% | viability, T/C [20] 61.1% | viability, T/C [29] 77.8% | viability, T/C [43] 70.2% | viability, T/C [44] 70.6% | viability, T/C [45] 25% | viability, T/C [25] 83.7% | viability, T/C [30] 77% | viability, T/C [47] 94.5% | viability, T/C [48] 85.9%

COC(=O)c1ccc2c(C(=Nc3ccc(N(C)C(=O)CN4CCN(C)CC4)cc3)c3ccccc3)c(O)[nH]c2c1 + CC1OCC2(CCN(c3cnc(Sc4ccnc(N)c4Cl)c(N)n3)CC2)C1N
inactive: viability, T/C [5] 69.4% | viability, T/C [26] 68.6% | viability, T/C [31] 57.1% | viability, T/C [32] 44.4% | viability, T/C [10] 63.5% | viability, T/C [27] 67.5% | viability, T/C [35] 38.7% | viability, T/C [36] 34.3% | viability, T/C [15] 51.2% | viability, T/C [28] 43.6% | viability, T/C [39] 44% | viability, T/C [20] 48.1% | viability, T/C [29] 37% | viability, T/C [43] 25% | viability, T/C [25] 37.6% | viability, T/C [30] 32.4% | viability, T/C [47] 13.2%
700 nM: IC50 (second compound 0.1 µM)
active: viability, T/C [33] 0.37% | viability, T/C [34] 0.35% | viability, T/C [37] 0.32% | viability, T/C [38] 0.28% | viability, T/C [40] 4.05% | viability, T/C [41] 0.33% | viability, T/C [42] 0.32% | viability, T/C [44] 2.45% | viability, T/C [45] 0.48% | viability, T/C [46] 0.38% | viability, T/C [48] 0.77% | viability, T/C [49] 0.35% | viability, T/C [50] 0.45%
< 31.6 nM: IC50 (second compound 1 µM) | IC50 (second compound 3.16 µM) | IC50 (second compound 10 µM)
251 nM: IC50 (second compound 0.316 µM)

COc1cc(Nc2ncc3c(n2)-c2ccc(Cl)cc2C(c2c(F)cccc2OC)=NC3)ccc1C(=O)O + CC1OCC2(CCN(c3cnc(Sc4ccnc(N)c4Cl)c(N)n3)CC2)C1N
799 nM: IC50 (second compound 10 µM)
6420 nM: IC50 (second compound 0.316 µM)
848 nM: IC50 (second compound 1 µM)
571 nM: IC50 (second compound 3.16 µM)
> 10000 nM: IC50 (second compound 0.1 µM)
inactive: viability, T/C [5] 69.3% | viability, T/C [26] 75.1% | viability, T/C [31] 58.4% | viability, T/C [32] 58% | viability, T/C [33] 51.7% | viability, T/C [34] 54% | viability, T/C [10] 67.4% | viability, T/C [27] 68.7% | viability, T/C [35] 57.1% | viability, T/C [36] 61.3% | viability, T/C [37] 49% | viability, T/C [38] 49.5% | viability, T/C [15] 62.4% | viability, T/C [28] 52.4% | viability, T/C [39] 54.4% | viability, T/C [40] 51.5% | viability, T/C [41] 41.3% | viability, T/C [42] 31.6% | viability, T/C [20] 53.4% | viability, T/C [29] 64.6% | viability, T/C [43] 56.8% | viability, T/C [44] 42% | viability, T/C [45] 33.3% | viability, T/C [46] 21.6% | viability, T/C [25] 70.2% | viability, T/C [30] 65.4% | viability, T/C [47] 51.1% | viability, T/C [48] 46.8% | viability, T/C [49] 43.3% | viability, T/C [50] 15.8%

COc1cc2nccc(Oc3ccc(NC(=O)C4(C(=O)Nc5ccc(F)cc5)CC4)cc3)c2cc1OC + CC1OCC2(CCN(c3cnc(Sc4ccnc(N)c4Cl)c(N)n3)CC2)C1N
2930 nM: IC50 (second compound 10 µM)
> 10000 nM: IC50 (second compound 0.1 µM)
3060 nM: IC50 (second compound 1 µM)
2790 nM: IC50 (second compound 0.316 µM)
inactive: viability, T/C [5] 87% | viability, T/C [26] 116% | viability, T/C [31] 102% | viability, T/C [32] 88.8% | viability, T/C [33] 51.4% | viability, T/C [34] 66.6% | viability, T/C [10] 81.9% | viability, T/C [27] 91.9% | viability, T/C [35] 84.9% | viability, T/C [36] 99.5% | viability, T/C [37] 45.1% | viability, T/C [38] 37.4% | viability, T/C [15] 92.8% | viability, T/C [28] 95.8% | viability, T/C [39] 86.3% | viability, T/C [40] 88.2% | viability, T/C [41] 48.1% | viability, T/C [42] 49.5% | viability, T/C [20] 78.6% | viability, T/C [29] 99% | viability, T/C [43] 91.3% | viability, T/C [44] 92.1% | viability, T/C [45] 57.5% | viability, T/C [46] 33.5% | viability, T/C [25] 99.2% | viability, T/C [30] 101% | viability, T/C [47] 93.3% | viability, T/C [48] 86.5% | viability, T/C [49] 47.1% | viability, T/C [50] 30.5%
4530 nM: IC50 (second compound 3.16 µM)
